Experimental findings from patent US20070117840A1, “Receptor antagonist” (priority 2004, published 2007) are described below.

In general, pIC50 refers to the negative decadic logarithm of the IC50, by convention in mol/L.

pIC50: −log10 of the molar value.

In experiment [1] the target is T1, human-type OT7T022 (Homo sapiens, UniProt Q9GZQ6).
T1 construct: expressed in transfected cells; host or cells: CHO cells (membrane fraction)
Kind of experiment: Binding inhibiting activity using human-type OT7T022-expressing CHO cell (125I-Y-RFRP-3). The settings on record: human-type OT7T022-expressing CHO cell membrane fraction, 125I-labeled Y-RFRP-3 100 pM; read-out: IC50 value (binding inhibiting rate). The procedure: Assessment of Binding Inhibiting Activity of Test Compound Using Human-Type OT7T022-Expressing CHO Cell
(1) Preparation of Iodine-Labeled Entity of Human-Type RFRP-3 (Y-RFRP-3)
A part thereof was 1/100 diluted, radioactivity was measured with a γ-counter, and the remaining authentic product was distributed, which was stored at −30° C.
(2) Assessment of Binding Inhibiting Activity
For measuring non-specific binding, non-labeled Y-RFRP-3 was further added to […]. Then, a membrane fraction was transferred to a unifilter GF/C (Perkin Elmer) by filtering the reaction solution using a cell harvester (Perkin Elmer), and this was washed with a cooled 50 mM Tris buffer (pH 7.5) five times. The filter was dried, Microsinti (Packard) was added to the filter, and radioactivity was measured with Topcount (Packard).
A binding inhibiting rate (IC50 value) of a test compound is shown in [Table 1].

The nature of experiment [2]: Blood glucagon and insulin concentration after intravenous administration of RFRP-1 to rat. It is filed as in vivo, Wistar male rat. From the text:
In FIG. 2, (-∘-) represents a blood glucagon concentration of a physiological saline administration group, (-▴-) represents a blood glucagon concentration of an RFRP-1 1 nmol/kg administration group, and (-▪-) represents a blood glucagon concentration of an RFRP-1 10 nmol/kg administration group.
In FIG. 3, (-∘-) represents a blood insulin concentration of a physiological saline administration group, (-▴-) represents a blood insulin concentration of an RFRP-1 1 nmol/kg administration group, and (-▪-) represents a blood insulin concentration of an RFRP-1 10 nmol/kg administration group. A value indicates mean±[…] (mean±SE) (n=4).
Pancreatic Glucagon Secretion Promoting Activity of RFRP
In order to study mechanism of blood glucose concentration increasing activity of RFRP-1, influence of RFRP-1 on a blood concentration of glucagon and insulin which are known as a hormone imparting a variation to a blood glucose concentration was studied. A mature Wistar male rat (weight 310 to 350 g at operation) was operated for collecting blood under free moving. Overnight after operation, 300 μl of a blood was collected using a tuberculin injection syringe having a dose of 1 ml and a 25 gauge injection needle (both Telmo) before administration of RFRP-1. […]

A short description of experiment [3]: Blood glucose concentration after intravenous administration of RFRP-1 to rat. In kind it is in vivo, Wistar male rat. The conditions noted are these: 10 nmol/kg, 5 minutes and 15 minutes after administration, compared with physiological saline group. From the text:
In FIG. 1, (-∘-) represents a blood glucose concentration of a physiological saline administration group, (-▴-) represents a blood glucose concentration of an RFRP-1 1 nmol/kg administration group, and (-▪-) represents a blood concentration of an RFRP-1 10 nmol/kg administration group.
Blood Glucose Concentration Increasing Activity of RFRP
As RFRP, human RFRP-1 (37 amino acids) consisting of an amino acid sequence of 56th (Ser) to 92nd (Phe) of an amino acid sequence represented by SEQ ID No.: 3. Hereinafter, this peptide is abbreviated as RFRP-1.
In order to study influence of peripheral administration of RFRP-1 on a blood glucose concentration, operation for collecting blood under free moving was performed. A mature Wistar male rat (weight 310 to 350 g at operation) was anesthetized with 50 mg/kg of pentobarbital by intraperitoneal administration. The rat was fixed on an anatomic pad in a supine position, and a left jugular vein was exposed. […]
Overnight after operation, 300 μl of blood was collected using a tuberculin injection syringe having a dose of 1 ml and a 25 gauge injection needle (both Telmo) before administration of RFRP-1. […] A blood glucose concentration was measured using Fuji Drichem 3500 (FUJIFILM).

A further experiment deals with T2, rat-type OT7T022 (Rattus norvegicus, UniProt Q9EP86).
T2 construct: expressed in transfected cells; host or cells: CHO cells (membrane fraction)
T2 sequence (Q9EP86 whole entry): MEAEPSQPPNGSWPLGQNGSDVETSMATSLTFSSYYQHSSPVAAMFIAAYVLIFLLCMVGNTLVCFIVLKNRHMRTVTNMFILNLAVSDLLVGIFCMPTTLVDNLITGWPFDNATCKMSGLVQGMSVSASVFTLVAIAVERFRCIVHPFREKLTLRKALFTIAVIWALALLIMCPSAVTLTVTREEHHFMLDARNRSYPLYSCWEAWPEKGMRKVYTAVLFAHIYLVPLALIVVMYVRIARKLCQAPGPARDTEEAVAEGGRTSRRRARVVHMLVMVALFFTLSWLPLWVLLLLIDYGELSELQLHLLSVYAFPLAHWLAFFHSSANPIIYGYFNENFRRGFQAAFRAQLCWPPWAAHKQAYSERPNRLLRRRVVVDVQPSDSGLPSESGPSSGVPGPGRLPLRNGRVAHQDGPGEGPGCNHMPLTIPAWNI
Kind of experiment: Binding inhibiting activity using rat-type OT7T022-expressing CHO cell membrane fraction. The conditions noted are these: iodine-labeled Y-RFRP-3 100 pM. As for the experimental part: Assessment of Binding Inhibiting Activity of Test Compound Using Rat-Type OT7T022-Expressing CHO Cell
(1) Preparation of Rat-Type OT7T022-Expressing CHO Cell Membrane Fraction
A flask in which a rat-type OT7T022-expressing CHO cell had been cultured was washed with 5 mM EDTA/PBS, cells were peeled with 5 mM EDTA/PBS, and cells were recovered by centrifugation, suspended in 25 mL of a buffer for preparing a membrane fraction (50 mM Tris-HCl, pH 7.5, 5 mM EDTA, 0.5 mM PMSF (manufactured by Wako Pure Chemical Industries, Ltd.), […] leupeptin (manufactured by Peptide Laboratory), 0.1 μg/mL pepstatin A (manufactured by Peptide Laboratory), 4 μg/mL E-64 (manufactured by Peptide Laboratory)), and homogenized on an ice using Polytron (12,000 rpm, 15 seconds×3 times). This was centrifuged in a high speed cooling centrifuge at 4° C. and 1,000 g for 10 minutes, and the supernatant was recovered. 25 mL of a buffer for preparing a membrane fraction was added to precipitates, and the supernatant was recovered by the same procedure. […] The pellet was suspended in a small amount of a buffer for preparing a membrane fraction, this was suspended using a Teflon (registered trade mark) homogenizer, a protein amount was measured using a part, and the remaining was dispensed, and stored at −80° C. […]

The target in experiment [4] is T1, human-type OT7T022. The experiment in a line: Antagonist activity in cAMP production inhibiting test system using human-type OT7T022-expressing CHO cell. It is filed as cell-based. The conditions noted are these: intracellular cAMP, agonist human-type RFRP-3-8 20 nM, forskolin 2 μM. The procedure:
Test of Antagonist Activity of Compound in cAMP Production Inhibiting Test System Using Human-Type OT7T022-Expressing CHO Cell
Antagonist activity of a test compound was measured in an intracellular cAMP production inhibiting test system of a CHO cell expressing human-type OT7T022. In the cAMP production inhibiting test, as an assay buffer, a Hanks' balanced salt solution (Gibco) to which 20 mM HEPES pH 7.4, 0.1% bovine serum albumin, and 0.2 mM 3-isobutyl-1-methylxanthine (Sigma) had been added, was used. A sample compound was adjusted with an assay buffer so that the final concentration became 10^−5M, 10^−6M, 10^−7M, 10^−8M, or 10^−10M. […] A human-type OT7T022-expressing CHO cell was passaged on a 96-well plate at 4×10^4/well, and cultured at 37° C., 5% CO2 and 95% air for one day. The plate which had been cultured for one day was washed with an assay buffer (150 μl) two times and, after 30 minutes, this was cultured for 30 minutes at 37° C. and 100% air. After washed with an assay buffer (150 μl) two times, 50 μl of a sample compound solution and, then, 50 μl of an agonist+forskolin solution were added, the mixture was stirred well and, after 30 minutes, this was cultured for 30 minutes at 37° C. and 100% air. An intracellular cAMP amount was measured according to a protocol of the present kit using cAMP-Screen™ system (ABI). […]
For orientation: cAMP levels reflect the balance of adenylyl cyclase and phosphodiesterase activity.

T1 sequence (Q9GZQ6 whole entry): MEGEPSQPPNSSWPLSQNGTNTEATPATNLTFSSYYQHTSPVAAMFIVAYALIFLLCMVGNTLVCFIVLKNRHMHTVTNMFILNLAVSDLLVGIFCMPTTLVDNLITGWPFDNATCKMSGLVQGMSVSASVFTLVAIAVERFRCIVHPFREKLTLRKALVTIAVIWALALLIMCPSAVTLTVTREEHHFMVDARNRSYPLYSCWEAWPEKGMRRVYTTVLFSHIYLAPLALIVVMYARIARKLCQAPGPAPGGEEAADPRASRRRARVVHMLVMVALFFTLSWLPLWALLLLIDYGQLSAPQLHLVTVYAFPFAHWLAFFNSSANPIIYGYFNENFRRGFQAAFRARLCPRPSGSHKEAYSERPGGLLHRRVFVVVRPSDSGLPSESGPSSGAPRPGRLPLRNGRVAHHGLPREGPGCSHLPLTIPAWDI

As to `CCCCOc1c(C(=O)OC(C)(C)C)n(CC(C)(C)C)c(=O)c2ccc(F)cc12` [Reference Example 12, tert-Butyl 4-butoxy-6-fluoro-2-neopentyl-1-oxo-1,2-dihydro-3-isoquinolinecarboxylate], the pIC50 on human-type OT7T022 [1] was more than 6.00.
Consider “RFRP-1: human RFRP-1 (37 amino acids) consisting of 56th (Ser) to 92nd (Phe) of the amino acid sequence of SEQ ID No.: 3 (SLNFEELKDWGPKNVIKMSTPAVNKMPHSFANLPLRF; Human)”, for which the blood insulin concentration entry in experiment [2] is recorded as “not recognized”. In addition, the blood glucose concentration entry in experiment [3] is listed as “significant (p<0.05, n=4) activity of increasing a blood glucose concentration”.
For the compound `CC(C)(C)Cn1c(C(=O)OC(C)(C)C)c(O)c2cc(Cl)c(Cl)cc2c1=O` [Example 3, tert-Butyl 6,7-dichloro-4-hydroxy-2-neopentyl-1-oxo-1,2-dihydro-3-isoquinolinecarboxylate], the pIC50 on human-type OT7T022 [1] was more than 6.00; at rat-type OT7T022 it was more than 6.00; on human-type OT7T022 [4], more than 5.30.
Consider `CC(C)(C)Cn1c(C(=O)OC(C)(C)C)c(O)c2ccc(F)cc2c1=O` [Example 1, tert-Butyl 7-fluoro-4-hydroxy-2-neopentyl-1-oxo-1,2-dihydro-3-isoquinolinecarboxylate], for which the pIC50 was more than 6.00 on human-type OT7T022 [1], more than 6.00 at rat-type OT7T022 and more than 5.30 on human-type OT7T022 [4].
